Test results taken from publication PMC5460289, “Identification of New Shikonin Derivatives as Antitumor Agents Targeting STAT3 SH2 Domain” (Scientific Reports, 2017).

Key:
Assay type in all cases: cell-based, human
MDA-MB-231 cells = assay: Mitochondrial transmembrane potential by JC-1 staining; conditions: 4 h treatment, control 92.3%
Experimental: Subsequently, the mitochondrial transmembrane potential was monitored using JC-1 staining. […] Red fluorescence represents the mitochondrial aggregate form of JC-1 with high ∆Ψm in normal cells. Green fluorescence represents the monomeric form of JC-1 with low ∆Ψm in apoptotic cells.
Figure 5 Mitochondrial transmembrane potential was analysed in PMM-172-treated MDA-MB-231 cells by JC-1 staining. TEXT PRINTED IN THE PICTURE: no label printed: Q1 1.74% (0 μM); Q2 92.3% (0 μM); Q4 0.011% (0 μM); Q3 5.94% (0 μM); Q1 1.88% (2 μM); Q2 73.3% (2 μM); Q4 0.179% (2 μM); Q3 24.6% (2 μM); Q1 1.88% (4 μM); Q2 64.6% (4 μM); Q4 0.227% (4 μM); Q3 33.3% (4 μM); Q1 0.436% (8 μM); Q2 21.3% (8 μM); Q4 0.016% (8 μM); Q3 78.2% (8 μM) DOUBTS OF THE COPYIST ABOUT THIS PICTURE: The picture prints no label for the substance; the plots are told apart only by concentration (0, 2, 4, 8 μM), and the 0 μM plot is the untreated control. / The quadrant percentages are printed very small, so 3, 5, 6, 8 and 9 cannot be told apart with certainty and all readings are best readings: 0 μM: Q1 1.74%, Q2 92.3%, Q3 5.94%, Q4 0.011%; 2 μM: Q1 1.88%, Q2 73.3%, Q3 24.6%, Q4 0.179%; 4 μM: Q1 1.88%, Q2 64.6%, Q3 33.3%, Q4 0.227%; 8 μM: Q1 0.436%, Q2 21.3%, Q3 78.2%, Q4 0.016% […]

[1] = system: STAT3-TATA-Luc reporter in MDA-MB-231 cells; assay: STAT3 dual-luciferase reporter assay; conditions: MDA-MB-231, 24 h treatment
Experimental: Figure 3 MDA-MB-231 cells were transfected with STAT3-TATA-Luc reporter and Renilla luciferase reporter plasmids. After 24 h, cells were treated with indicated concentrations of PMM-172 or Stattic for 24 h and then luciferase intensity was measured. Results are fold change ± SD of three independent experiments, *P < 0.05, **P < 0.01.
Cells were seeded in 24 well plates and transiently transfected together with STAT3 reporter plasmid 4 × M67 pTATA TK-Luc (0.2 μg/per well, Addgene, USA) and Renilla luciferase control reporter plasmid pRL-CMV (0.1 μg/per well, promega, USA), using lipofectamine 2000 (Invitrogen, USA). Then the cells were incubated with complete medium for 24 h with PMM-172 or Stattic. Following the treatment, the cells were harvested in 100 μL of passive lysis buffer (Promega, USA) in each well. A 25 μL aliquot of cell lysate was subjected to a luciferase assay by using the dual-luciferase assay kit (Promega, USA). STAT3 luciferase activity was measured by EnVision Mutilabel Reader (Perkin Elmer, USA). Relative luciferase activity was calculated after the activity of STAT3-dependent firefly luciferase had been normalized to that of Renilla luciferase. All values are expressed as - fold induction relative to basal activity.

[2] = system: STAT3 nuclear localization in MDA-MB-231 cells; assay: STAT3 nuclear localization (cytoplasmic and nuclear extracts, Western blot); conditions: MDA-MB-231, 24 h
Experimental: It is known that the dimerization of STAT3 is induced by the phosphorylation at residue Tyr 705, which then leads to its nuclear translocation. Herein, we investigated the effect of PMM-172 and Stattic on STAT3 nuclear translocation. The cytoplasmic and nuclear proteins of treated cells were extracted and the expressions of STAT3 in both fractions were examined.
Figure 7 MDA-MB-231 cells were treated with indicated concentrations of PMM-172 or Stattic for 24 h, the expression levels of STAT3 in cytoplasmic and nuclear extracts were examined and relative expression levels were analyzed by Image J software. β-actin and Lamin B1 served as markers of cytoplasmic and nuclear extractions, respectively. […] (C) MCF-10A cells were treated with the indicated concentrations of PMM-172 for 24 h. PMM-172 had no effect on the level of the pSTAT3 level in MCF-10A cells. […] Data were shown as mean ± SD from three independent experiments, **P < 0.01. Cropped blots/gels were used in the figure and the gels had been run under the same experimental conditions; the full-length blots/gels are presented in Supplementary Figure S3.
To examine the relative proportion of STAT3 in the cytoplasm and nucleus, cytoplasmic and nuclear extracts were prepared. In brief, control and treated cells were collected and suspended in a buffer containing 10 mM HEPES (pH 7.9), 10 mM KCl, 0.1 mM EDTA (pH 8.0), 0.1 mM EGTA (pH 7.0), 1 mM DTT, 0.5 mM PMSF, 2 μg/mL leupeptin, 2 μg/mL aprotonin, 0.5 mg/mL benzamidine. After 15 min, NP-40 (0.25%) was added, and cell lysate was vortexed for 10 s and centrifuged at 10000 rmp at 4 °C for 1 min. […] The protein content in the nuclear and cytoplasmic fractions was determined using a Pierce BCA protein assay kit.
Cells were rinsed twice with cold PBS and then lysed with RIPA buffer containing a protease inhibitor mixture at 1:100 dilution on ice for 30 min. Insoluble components of cell lysates were removed by centrifugation (4 °C, 12000 rmp, 10 min), and protein concentrations were measured using a Pierce BCA protein assay kit. […]

## COc1cc(OC)cc(-c2nnc(SCC(=O)O[C@H](CC=C(C)C)C3=CC(=O)c4c(O)ccc(O)c4C3=O)o2)c1 [PMM-172, (R)-1-(5,8-dihydroxy-1,4-dioxo-1,4-dihydronaphthalen-2-yl)-4-methylpent-3-en-1-yl 2-((5-(3,5-dimethoxyphenyl)-1,3,4-oxadiazol-2-yl)thio)acetate]
MDA-MB-231 cells; 4 μM
  JC-1 quadrant Q2 (ratio of cells with high membrane potential): 64.6%
MDA-MB-231 cells; 8 μM
  JC-1 quadrant Q2 (ratio of cells with high membrane potential): 21.3%
[1]
  STAT3 luciferase activity: decreased the STAT3 luciferase activity in a dose-dependent manner
[2]
  level of STAT3 in the cytoplasmic fraction: slightly increased
  level of STAT3 in the nuclear fraction: decreased by PMM-172 in a dose-dependent manner
